Structures can show the parent of a compound that is named as a salt. Where two headings read alike, the source gives them in different places.
Assays:
[1] = tested on: mTORC1 and mTORC2 pathways; assay: Screening of GSK3 inhibitors: phospho-S6 / phospho-AKT staining (activation of mTORC1 and mTORC2 pathways); format: cell-based, human; settings: for frequency of pS6+pAKT+ cells / activation of mTORC pathway: FIG. 12A, in words; for Fold change in pS6+pAKT+cells (relative to DMSO): 12 hs at optimal dose, washout, 48 hs anti-CD3/anti-CD28, symbols not defined
Description: (§1) FIG. 12. Screening molecules for reprogramming human CD8^+ T cells Total CD8^+ T cells were purified and treated for 12 hs with titrated doses of GSK3 inhibitors or DMSO vehicle control. After drug washout, cells were stimulated for 48 hs with plate-bound anti-CD3/anti-CD28 antibodies (at 1 mg/mL), followed by flow cytometry analyses. A. Upon stimulation, intracellular cytokine and phospho-protein staining was performed, the latter for the detection of phospho-S6 and phospho-AKT proteins (indicative of activation of mTORC1 and mTORC2 pathways, respectively). The fold change in the frequency of IFN-γ^+TNF-α^+ and pS6^+pAKT^+ cells induced by the treatment with each GSK3 inhibitor, relative to DMSO control, was analyzed. […] B. Fold change in the expression of the indicated markers and memory phenotypes induced by anti-CD3/anti-CD28 antibody stimulation relative to unstimulated cells (at least 3 donors per condition). TCM: T central memory; TEM: T effector memory; TTM: T transitional memory; TTE: T terminal effector; TSCM: T stem cell memory.
(§2) For reprogramming of CD8^+ T cells followed by polyclonal stimulation, cells were isolated by negative magnetic bead sorting (Stemcell Technologies). For reprogramming of CD8^+ T cells followed by antigen-specific stimulation, PBMC and magnetically separated CD8^+ T cells and non-CD8^+ T cells were used (REAlease® CD8 MicroBead Kit; Miltenyi Biotech). Then, CD8^+ T cells were treated with a GSK3 inhibitor (6-Bromoindirubin-3′-oxime; BIO; Sigma-Aldrich), at 3 μM, or an equivalent concentration of dimethyl sulfoxide (DMSO) vehicle control, in complete medium, for 12 hs at 37° C., 5% CO2. Non-CD8 cells were left resting during this time in complete medium. CD8^+ T cells were washed with complete medium and stimulated with the peptide pool in presence of non-CD8 T cells.
(§3) In some experiments, cells were culture in RPMI medium without glucose (MP Biomedicals). CD8^+ T cell proliferation was evaluated by CFSE dilution (at 1 μM, Thermo Fisher Scientific). In additional experiments, reprogrammed CD8^+ T cells were stimulated with IL-7 or IL-15 (both at 10 ng/mL; R&D) and cultured for 6 days. In all the cases, cells were cultured at a density of 2×10^6 cells/mL.
(§4) After cultures, cells were stained with the LIVE/DEAD Fixable Aqua Dead Cell Stain kit (Thermo Fisher Scientific), with anti-CD3 Alexa Fluor 700 or APC efluor 780 and anti-CD8 PE Texas Red antibodies, accordingly. […] In some experiments, cells were stained with APC-conjugated dextramers (Immudex), incubated for 15 minutes at room temperature. Additional surface staining panels included anti-HLA-DR Superbright 780, anti-CD38 Superbright 600, anti-PD-1 BV421, anti-LAG-3 APC efluor 780, anti-TIM3 PE Cy7, and anti-TIGIT BV786 antibodies, or anti-CD122 PE and anti-CD215 FITC antibodies. The BD Transcription Factor Buffer Set kit (BD Biosciences) was used for cell fixation and permeabilization. […] Cell acquisition was performed using LSR II or ARIA III flow cytometers (both from BD Biosciences), and data were analyzed with FlowJo v.10 software (BD Biosciences).
(§5) The inventors explored GSK3 inhibitors to expand the array of molecules that could be used for CD8^+ T cell reprogramming. They implemented a screening approach that combined the evaluation of cytokine polyfunctionality of CD8^+ T cells (IFN-γ+TNFα+) vs the activation of mTORC1 and mTORC2 pathways (pS6+pAKT+) upon treatment with the GSK3 inhibitors and subsequent polyclonal stimulation.

human CD8+ T cells [2] = assay: Screening of GSK3 inhibitors: cytokine polyfunctionality (IFN-γ+TNF-α+) of CD8+ T cells after anti-CD3/anti-CD28 stimulation; format: cell-based; settings: for Fold change in IFN-γ+ TNF-a+cells (relative to DMSO): 12 hs at optimal dose, washout, 48 hs anti-CD3/anti-CD28, symbols not defined; for IFN-γ+TNF-α+ cells (polyfunctionality) relative to vehicle control: FIG. 12A, in words
Description: as §1, §2, §3, §4, §5

GSK3 = GSK3 inhibitor, review Front. Mol. Neurosci. 2011; cited from earlier work
human CD8+ T cells [3] = assay: Screening of GSK3 inhibitors: markers and memory phenotypes by flow cytometry; format: cell-based
Description: as §1, §2, §3, §4

[4] = 12 hs at optimal dose, anti-CD3/anti-CD28 stimulation relative to unstimulated cells, symbols not defined

For `COc1ccc(CNC(=O)Nc2ncc([N+](=O)[O-])s2)cc1` [AR-A014418], which “frequency of pS6+pAKT+ cells / activation of mTORC pathway” value [1] is on record?
The value was “decreased”.

Which “Fold change in IFN-γ+ TNF-a+cells (relative to DMSO)” value (human CD8+ T cells [2]) does the source give for `CN1CCN(S(=O)(=O)c2ccc(-c3cnc(N)c(C(=O)Nc4cccnc4)n3)cc2)CC1` [AZD 2858] here?
Its value is “+ +”.

And the “Fold change in pS6+pAKT+cells (relative to DMSO)” value [1]?
Its value is “+ +”.

What does the source list for `O=C1Cc2c([nH]c3ccc([N+](=O)[O-])cc23)-c2ccccc2N1` [Alsterpaullone]?
Fold change in IFN-γ+ TNF-a+cells (relative to DMSO) (human CD8+ T cells [2]): + +; IFN-γ+TNF-α+ cells (polyfunctionality) relative to vehicle control (human CD8+ T cells [2]): increased; Fold change in pS6+pAKT+cells (relative to DMSO) [1]: + +; frequency of pS6+pAKT+ cells / activation of mTORC pathway [1]: activation of mTORC pathway; Fold change in % HLA+ CD38+ (human CD8+ T cells [3]; [4]): − −

Which “Fold change in IFN-γ+ TNF-a+cells (relative to DMSO)” value (human CD8+ T cells [2]) does the source give for `CC(=O)ON=C1C(=C2C(=O)Nc3cc(Br)ccc32)Nc2ccccc21` [Bio-acetoxime, 6-bromoindirubin-3′-acetoxime] here?
The value was “+ +”.

And the “IFN-γ+TNF-α+ cells (polyfunctionality) relative to vehicle control” value (human CD8+ T cells [2])?
The value was “promoted”.

And the “frequency of pS6+pAKT+ cells / activation of mTORC pathway” value [1]?
Its value is “lower frequency”.

And the “CD127+ T-bet− phenotype” value (human CD8+ T cells [3]; FIG. 12B, in words)?
Its value is “preserved”.

What about the “acquisition of T-bet, HLA-DR and CD38, PD-1 and LAG-3” value (human CD8+ T cells [3]; FIG. 12B, in words) of the same compound?
Its value is “restrained”.

What about the “phenotype / profile promoted in CD8+ T cells” value (human CD8+ T cells [3]; FIG. 12B, in words) of the same compound?
The value was “promoted a less-differentiated phenotype”.

For `OCCCNc1cc(-c2ccnc(Nc3cccc(Cl)c3)n2)ccn1` [CGP 60474], which “Fold change in % HLA+ CD38+” value (human CD8+ T cells [3]; [4]) is on record?
The value was “− −”.

Which IC50 (GSK3) does the source give for `NC1=N[C@H]2c3c([nH]c(Br)c3Br)C(=O)N3CCC[C@]23N1` [Dibromocantharelline] here?
Its IC50 is 3 µM.

Which “Fold change in % HLA+ CD38+” value (human CD8+ T cells [3]; [4]) does the source give for `CN1CC[C@H](c2c(O)cc(O)c3c(=O)cc(-c4ccccc4Cl)oc23)[C@H](O)C1` [Flavopiridol hydrochloride hydrate] here?
Its value is “− −”.

What about the “Fold change in % Naive-TSCM” value (human CD8+ T cells [3]; [4]) of the same compound?
Its value is “− −”.

What about the “Fold change in % TCM” value (human CD8+ T cells [3]; [4]) of the same compound?
The value was “− −”.

For `CN(C)CCCn1cc(C2=C(c3c[nH]c4ccccc34)C(=O)NC2=O)c2ccccc21` [GF 109203X], which “Fold change in % HLA+ CD38+” value (human CD8+ T cells [3]; [4]) is on record?
Its value is “− −”.

For `O=C([O-])[O-].[Li+].[Li+]` [Lithium carbonate], which “Fold change in % HLA+ CD38+” value (human CD8+ T cells [3]; [4]) is on record?
Its value is “+ +”.

Which IC50 (GSK3) does the source give for `O[C@]12C=C(c3nccc4c3[nH]c3ccccc34)[C@@H]3CCN(CCCC/C=C\CC1)C[C@@]31C[C@@H]3/C=C\CCCCN3[C@H]12` [Manzamine A] here?
The IC50 was 1.5 µM.

For `COc1ccc(-c2ocnc2C(=O)NCCCn2cncn2)cc1Cl` [PF-04802367], which “Fold change in IFN-γ+ TNF-a+cells (relative to DMSO)” value (human CD8+ T cells [2]) is on record?
The value was “+ +”.

And the “IFN-γ+TNF-α+ cells (polyfunctionality) relative to vehicle control” value (human CD8+ T cells [2])?
The value was “increased”.

What about the “Fold change in pS6+pAKT+cells (relative to DMSO)” value [1] of the same compound?
The value was “+ +”.

What about the “frequency of pS6+pAKT+ cells / activation of mTORC pathway” value [1] of the same compound?
Its value is “activation of mTORC pathway”.

For `COc1ccc2c(c1)/C(=C/c1cnc[nH]1)C(=O)N2` [SU 9516], which “Fold change in IFN-γ+ TNF-a+cells (relative to DMSO)” value (human CD8+ T cells [2]) is on record?
Its value is “+ +”.

What about the “IFN-γ+TNF-α+ cells (polyfunctionality) relative to vehicle control” value (human CD8+ T cells [2]) of the same compound?
Its value is “increased”.

What about the “Fold change in pS6+pAKT+cells (relative to DMSO)” value [1] of the same compound?
The value was “+ +”.

And the “frequency of pS6+pAKT+ cells / activation of mTORC pathway” value [1]?
Its value is “activation of mTORC pathway”.

And the “Fold change in % HLA+ CD38+” value (human CD8+ T cells [3]; [4])?
Its value is “+ +”.

For `CN[C@@H]1C[C@H]2O[C@@](C)([C@@H]1OC)n1c3ccccc3c3c4c(c5c6ccccc6n2c5c31)C(=O)NC4` [Staurosporine], which “Fold change in % CD127+ T-bet−” value (human CD8+ T cells [3]) is on record?
The value was “+”.

And the “Fold change in % HLA+ CD38+” value (human CD8+ T cells [3])?
Its value is “−”.

And the “Fold change in % LAG3+ PD1+” value (human CD8+ T cells [3])?
Its value is “−”.

What about the “Fold change in % TTM” value (human CD8+ T cells [3]) of the same compound?
Its value is “+”.

For `O=c1sn(-c2cccc3ccccc23)c(=O)n1Cc1ccccc1` [Tideglusib (NP031112)], which “frequencies of CD127− T-bet+ cells, and LAG-3+ PD-1+ cells” value (human CD8+ T cells [3]; FIG. 12B, in words) is on record?
The value was “higher frequencies”.

And the “phenotype / profile promoted in CD8+ T cells” value (human CD8+ T cells [3]; FIG. 12B, in words)?
Its value is “promoted an effector-like profile”.

With `[Zn+2]` [Zinc] as the compound, how does the IC50 (GSK3) read?
Its IC50 is 15 µM.

Source: patent US20250108070A1, “METHOD FOR REPROGRAMMING CD8+ T CELLS TO ENHANCE THEIR THERAPEUTIC POTENTIAL AND APPLICATIONS THEREOF” (INSTITUT PASTEUR, priority 2022, published 2025)
